This passage reports logP results from patent US7186831B2, “5-halo-2-alkyl[1,2,4]triazolo[1,5-a]pyrimidin-7-amines” (priority 2001, dated 2007).

A word on the logP: it is a log measure of how a compound divides between an organic and an aqueous phase.

This data set can be described thus: log P by HPLC. The data set is classed as physicochemical. Conditions: HPLC, gradient method, acetonitrile/0.1% aqueous phosphoric acid; EEC directive 79/831 Annex V. A8.
Consider `COCCN(C)c1c(-c2c(F)cccc2Cl)c(Cl)nc2nc(C3CC3)nn12` [compound 699], for which the logP amounted to 3.3.

Consider `C=C(C)CN(C)c1c(-c2c(F)cccc2Cl)c(Cl)nc2nc(C3CC3)nn12` [compound 700], for which the log partition coefficient (logP) is 4.21.

Compound `CCN(CCOC)c1c(-c2c(F)cccc2Cl)c(Cl)nc2nc(C3CC3)nn12` [compound 701] returned a logP of 3.66.

`CC1CCCN1c1c(-c2c(F)cccc2Cl)c(Cl)nc2nc(C3CC3)nn12` (centres unmarked) [compound 702] yielded a lipophilicity (logP) of 3.94.

Take `Fc1cccc(Cl)c1-c1c(Cl)nc2nc(C3CC3)nn2c1N1CCCC1C(F)(F)F` (centres unmarked) [compound 703]: the logP came to 4.1.

In turn, `Fc1cccc(Cl)c1-c1c(Cl)nc2nc(C3CC3)nn2c1N1CCCC1` [compound 704] displayed a logP of 3.55.

`CC1CCCCN1c1c(-c2c(F)cccc2Cl)c(Cl)nc2nc(C3CC3)nn12` (centres unmarked) [compound 705] showed a logP of 4.54.

The compound `CC1CCN(c2c(-c3c(F)cccc3Cl)c(Cl)nc3nc(C4CC4)nn23)CC1` [compound 706] yielded a log partition coefficient (logP) of 4.59.

In turn, `Fc1cccc(Cl)c1-c1c(Cl)nc2nc(C3CC3)nn2c1N1CCC(F)CC1` [compound 707] had a lipophilicity (logP) of 3.63.

Compound `Fc1cccc(Cl)c1-c1c(Cl)nc2nc(C3CC3)nn2c1N1CCCCC1` [compound 708] returned a logP of 4.19.

Regarding `Fc1cccc(Cl)c1-c1c(Cl)nc2nc(C3CC3)nn2c1N1CCOCC1` [compound 709], the logP is reported as 3.05.

As for `CCNc1c(-c2ccc(F)cc2F)c(Cl)nc2nc(C3CC3)nn12` [compound 712], the logP is on record as 2.97.

`N#CCNc1c(-c2ccc(F)cc2F)c(Cl)nc2nc(C3CC3)nn12` [compound 713]: the logP turned out to be 2.42.

Turning to `Fc1ccc(-c2c(Cl)nc3nc(C4CC4)nn3c2NCC(F)(F)F)c(F)c1` [compound 714], the log partition coefficient (logP) is recorded as 3.17.

With `Fc1ccc(-c2c(Cl)nc3nc(C4CC4)nn3c2NC2CCCCC2C(F)(F)F)c(F)c1` (centres unmarked) [compound 715], the logP is reported as 4.08.

For `Fc1ccc(-c2c(Cl)nc3nc(C4CC4)nn3c2NC2CC(C(F)(F)F)CC(C(F)(F)F)C2)c(F)c1` (centres unmarked) [compound 716], the logP is 4.31.

Compound `CCOC(=O)CN(C)c1c(-c2ccc(F)cc2F)c(Cl)nc2nc(C3CC3)nn12` [compound 717] returned a logP of 3.28.

As to `CN(CCC#N)c1c(-c2ccc(F)cc2F)c(Cl)nc2nc(C3CC3)nn12` [compound 718], the log partition coefficient (logP) was 2.79.

`CN(CC#N)c1c(-c2ccc(F)cc2F)c(Cl)nc2nc(C3CC3)nn12` [compound 719] displayed a logP of 2.79.

Take `COC(=O)CN(C)c1c(-c2ccc(F)cc2F)c(Cl)nc2nc(C3CC3)nn12` [compound 720]: the lipophilicity (logP) worked out at 2.95.

For `CN(CCCl)c1c(-c2ccc(F)cc2F)c(Cl)nc2nc(C3CC3)nn12` [compound 721], the logP amounted to 3.5.

`CN(C)c1c(-c2ccc(F)cc2F)c(Cl)nc2nc(C3CC3)nn12` [compound 722] came in with a logP of 3.06.

`CCN(CCN(C)C)c1c(-c2ccc(F)cc2F)c(Cl)nc2nc(C3CC3)nn12` [compound 723] yielded a logP of 1.65.

The compound `CCN(CCN)c1c(-c2ccc(F)cc2F)c(Cl)nc2nc(C3CC3)nn12` [compound 724] registered a logP of 1.47.

With `CCN(CCC#N)c1c(-c2ccc(F)cc2F)c(Cl)nc2nc(C3CC3)nn12` [compound 725], the logP is given as 3.07.

In turn, `CCCN(CCCN)c1c(-c2ccc(F)cc2F)c(Cl)nc2nc(C3CC3)nn12` [compound 726] displayed a logP of 1.61.

Turning to `CCOC(=O)CN(c1c(-c2ccc(F)cc2F)c(Cl)nc2nc(C3CC3)nn12)C1CC1` [compound 727], the logP was determined as 3.84.

Regarding `CC(=O)NC1CCN(c2c(-c3ccc(F)cc3F)c(Cl)nc3nc(C4CC4)nn23)C1` (centres unmarked) [compound 728], the lipophilicity (logP) was determined as 2.17.

As to `Fc1ccc(-c2c(Cl)nc3nc(C4CC4)nn3c2N2CCCC2C(F)(F)F)c(F)c1` (centres unmarked) [compound 729], the logP is given as 4.14.

As for `CC(=O)C1CCN(c2c(-c3ccc(F)cc3F)c(Cl)nc3nc(C4CC4)nn23)CC1` [compound 730], the log partition coefficient (logP) is listed as 3.07.

The compound `COC(=O)C1CCN(c2c(-c3ccc(F)cc3F)c(Cl)nc3nc(C4CC4)nn23)CC1` [compound 731] gave a logP of 3.38.

In turn, `Fc1ccc(-c2c(Cl)nc3nc(C4CC4)nn3c2N2CCC(Br)CC2)c(F)c1` [compound 732] had a logP of 4.08.

The compound `COC(=O)C1CCCCN1c1c(-c2ccc(F)cc2F)c(Cl)nc2nc(C3CC3)nn12` (centres unmarked) [compound 733] came in with a logP of 3.92.

Turning to `Fc1ccc(-c2c(Cl)nc3nc(C4CC4)nn3c2N2CCC(N3CCOCC3)CC2)c(F)c1` [compound 734], the logP turned out to be 1.55.

In the case of `CN1CCN(c2c(-c3ccc(F)cc3F)c(Cl)nc3nc(C4CC4)nn23)CC1` [compound 735], the logP was determined as 1.43.

`CC1CN(c2c(-c3ccc(F)cc3F)c(Cl)nc3nc(C4CC4)nn23)CC(C)O1` (centres unmarked) [compound 736] came in with a logP of 3.63.

`Cc1cccc(Nc2c(-c3ccc(F)cc3F)c(Cl)nc3nc(C4CC4)nn23)c1` [compound 737] showed a logP of 3.61.

In turn, `Fc1ccc(Nc2c(-c3ccc(F)cc3F)c(Cl)nc3nc(C4CC4)nn23)cc1` [compound 738] showed a logP of 3.27.

For `CC(C)Nc1c(-c2c(F)cccc2F)c(Cl)nc2nc(C3CC3)nn12` [compound 739], the log partition coefficient (logP) was determined as 3.14.

Compound `Fc1cccc(F)c1-c1c(Cl)nc2nc(C3CC3)nn2c1NC1CCCC1` [compound 740] registered a logP of 3.66.

In turn, `FC(F)CNc1c(-c2ccc(Cl)cc2Cl)c(Cl)nc2nc(C3CC3)nn12` [compound 741] came in with a logP of 3.42.

In the case of `FC(F)(F)CNc1c(-c2ccc(Cl)cc2Cl)c(Cl)nc2nc(C3CC3)nn12` [compound 742], the logP turned out to be 3.72.

As to `Fc1cccc(F)c1-c1c(Cl)nc2nc(C3CC3)nn2c1N1OC2CCC1C2` (centres unmarked) [compound 743], the logP stood at 3.23.

`CC(C)CNc1c(-c2c(F)cccc2F)c(Cl)nc2nc(C3CC3)nn12` [compound 744]: the logP stood at 3.44.

In the case of `Clc1ccccc1-c1c(Cl)nc2nc(C3CC3)nn2c1NCC1CC1(Cl)Cl` (centres unmarked) [compound 745], the logP came to 3.78.

The compound `CC(C)CN(N)c1c(-c2ccc(Cl)cc2Cl)c(Cl)nc2nc(C3CC3)nn12` [compound 750] gave a logP of 4.36.

For the compound `CC(C)C(C)Nc1c(-c2c(F)cccc2F)c(Cl)nc2nc(C3CC3)nn12` (centres unmarked) [compound 751], the logP is reported as 3.82.

Regarding `C=C(C)CN(CC)c1c(-c2c(F)cccc2F)c(Cl)nc2nc(C3CC3)nn12` [compound 752], the logP amounted to 4.31.

As to `Fc1cccc(F)c1-c1c(Cl)nc2nc(C3CC3)nn2c1N1CCCCO1` [compound 753], the logP came out at 3.47.

`CC(C)CN(N)c1c(-c2c(F)cccc2F)c(Cl)nc2nc(C3CC3)nn12` [compound 754] displayed a lipophilicity (logP) of 3.47.

`C=C(C)CNc1c(-c2c(F)cccc2F)c(Cl)nc2nc(C3CC3)nn12` [compound 760]: the logP was determined as 3.28.

`CCC(C)Nc1c(-c2c(F)cccc2F)c(Cl)nc2nc(C3CC3)nn12` (centres unmarked) [compound 761] displayed a logP of 3.44.

Compound `CC(C)(C)CNc1c(-c2c(F)cccc2F)c(Cl)nc2nc(C3CC3)nn12` [compound 762] had a logP of 3.9.

`Fc1cccc(F)c1-c1c(Cl)nc2nc(C3CC3)nn2c1NCC(F)F` [compound 763] returned a log partition coefficient (logP) of 2.72.

The compound `CC(Nc1c(-c2c(F)cccc2F)c(Cl)nc2nc(C3CC3)nn12)C(F)(F)F` (centres unmarked) [compound 764] returned a lipophilicity (logP) of 3.98.

In the case of `Cc1nc2nc(Cl)c(-c3ccc(F)cc3Cl)c(NCC(F)(F)F)n2n1` [compound 766], the lipophilicity (logP) turned out to be 2.8.

`C=C(C)CN(CC)c1c(-c2ccc(Cl)cc2Cl)c(Cl)nc2nc(C3CC3)nn12` [compound 769] yielded a logP of 5.25.

The compound `Fc1cccc(F)c1-c1c(Cl)nc2nc(C3CC3)nn2c1N1CC=CCO1` [compound 770] came in with a log partition coefficient (logP) of 3.32.

For the compound `Fc1cccc(F)c1-c1c(Cl)nc2nc(C3CC3)nn2c1NCC(F)(F)F` [compound 771], the logP was determined as 3.04.

`CC(C)CN(N)c1c(-c2c(F)cc(F)cc2F)c(Cl)nc2nc(C3CC3)nn12` [compound 773] gave a logP of 3.65.

`CC(Nc1c(-c2ccc(Cl)cc2Cl)c(Cl)nc2nc(C3CC3)nn12)C(=O)O` (centres unmarked) [compound 774] registered a logP of 2.7.

For `Cc1nc2nc(Cl)c(-c3ccc(Cl)cc3Cl)c(N3OC4CCC3C4)n2n1` (centres unmarked) [compound 780], the logP was determined as 3.41.

Compound `C=C(C)CN(CC)c1c(-c2ccc(Cl)cc2Cl)c(Cl)nc2nc(C)nn12` [compound 783] showed a logP of 4.56.

Compound `Cc1nc2nc(Cl)c(-c3ccc(Cl)cc3Cl)c(N3CCCCN3)n2n1` [compound 784] displayed a logP of 3.35.

In the case of `Fc1ccc(-c2c(Cl)nc3nc(C4CC4)nn3c2N2CCCCO2)c(Cl)c1` [compound 785], the logP was determined as 3.87.

Turning to `Fc1cc(F)c(-c2c(Cl)nc3nc(C4CC4)nn3c2N2CC=CCO2)c(F)c1` [compound 786], the lipophilicity (logP) was 3.56.

`CC(C)=NN(CC(C)C)c1c(-c2c(F)cccc2F)c(Cl)nc2nc(C3CC3)nn12` [compound 787]: the logP amounted to 4.21.

For the compound `Cc1nc2nc(Cl)c(-c3ccc(Cl)cc3Cl)c(NC(C)C(C)C)n2n1` (centres unmarked) [compound 788], the logP is on record as 4.06.

As to `Cc1nc2nc(Cl)c(-c3ccc(Cl)cc3Cl)c(NCC(C)C)n2n1` [compound 789], the logP came out at 3.68.

`CC(C)CNc1c(-c2ccc(Cl)cc2Cl)c(Cl)nc2nc(C3CC3)nn12` [compound 790] showed a lipophilicity (logP) of 4.3.

Turning to `CC(C)CN(N)c1c(-c2c(F)cccc2Cl)c(Cl)nc2nc(C3CC3)nn12` [compound 791], the logP is recorded as 3.74.

For the compound `CC(=O)NC1CCN(c2c(-c3ccc(F)cc3F)c(Cl)nc3nc(C(F)(F)F)nn23)C1` (centres unmarked) [compound 793], the logP was found to be 2.56.

In turn, `CN(C)C1CCN(c2c(-c3ccc(F)cc3F)c(Cl)nc3nc(C(F)(F)F)nn23)C1` (centres unmarked) [compound 795] gave a logP of 1.67.

As to `Fc1ccc(-c2c(Cl)nc3nc(C(F)(F)F)nn3c2N2CCC3(CC2)OCCO3)c(F)c1` [compound 796], the logP is listed as 3.8.
